Source: US12516038B2, “Inhibitors of antigen presentation by HLA-DR” (Janssen Pharmaceutica NV, priority 2020, dated 2026)

How the values were obtained:
HLA-DRB1*0401 = HLA-DRB1*0401 (Homo sapiens (Human), UniProt P01903+P01911, A100K/A169T/DEL228-266/F76Y/I96L/K127E/L162R/M171V/N62H/P40V/Q125Y/R42H/S133A/S149N/S66Y/V115G/V209L/W38E); assay: HLA-DR4 HTRF assay; assay type: binding; conditions: inhibition of loading of Alexa Fluor 647-labeled Cit-CII peptide onto HLA-DR4 (CLIP cleaved)
Summary of the method: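 HLA-DRB1*04:01 construct (α/β fused to human Fc, CLIP pre-cleaved by HRV3C overnight at 4° C) at 3 nM was preincubated 45 min with compound and 1 nM anti-Fc-Tb donor, then 40 nM Alexa647-Cit-CII1236-1249 peptide added. After 90 min at 37° C, the 665/620 nm HTRF ratio gave % inhibition; IC50 by nonlinear regression.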

[1] = system: human peripheral blood CD4+ helper T cells; assay: Pan-CD4+ T cell activation (off-target assay); assay type: cell-based; conditions: Homo sapiens, T-cell, 24 h, anti-CD3/anti-CD28 stimulation, IL-2 production by ELISA
Text: The counter-screening was made through an HLA-DR-independent assay (Pan-CD4+ T cell activation assay), i.e., TCR-stimulated pan-T cell activation assay, and consists of activating T cell directly with agonistic antibody targeting the T cell receptor. The lack of inhibition in the counter-screening assay reflects that the inhibition of T cell activation in the HLA-DR4 restricted peptide-specific T cell based assay with the small molecule inhibitors is due to impaired antigen presentation on HLA-DR to the T cell and not due to a direct inhibition of the T cell function by an off-target mechanism (i.e., independently of targeting HLA-DR).
Pan-CD4+ T Cell Activation
Compounds were tested using a pan-T cell activation assay. In this assay, anti-human CD3 antibody (BD Pharmingen #55336) pre-coated at 1 μg/mL to a 96-well assay plate and 1 μg/ml soluble anti-human CD28 (EBioscience #16-0289-85) antibody were used for activating human peripheral blood CD4+ helper T cells (no HLA-DR-expressing APC were present in this assay format), in the presence of compounds (or vehicle control) for 24 hrs. IL-2 production was measured in the culture supernatant by ELISA (Human IL-2 Duo Set ELISA #DY202 from R&D Systems).

[2] = system: HLA-DR4 restricted mouse T cell hybridoma line (DR4.CII.36.8) with HLA-DRB1*04:01-expressing Boleth cells; assay: HLA-DR4-restricted peptide-specific T cell-based assay (hybridoma assay); conditions: 6 h, inhibition of IL-2 production, CII259-273 peptide presented by Boleth cells
Summary of the method: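 IC50 values derive from 4-parameter logistic fits of IL-2 AlphaLISA signal over 8-point duplicate titrations. Compound and HLA-DRB1*04:01 Boleth APCs were preincubated 1 h, 37° C., before adding CII259-273-restricted DR4.CII.36.8 hybridoma cells with peptide for 6 h at 37° C., in DMEM/1% FCS.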

| SMILES | IC50 (HLA-DRB1*0401) | IC50 [1] | IC50 ([2]; Mus musculus, T-cell) | IC50 [2] |
| --- | --- | --- | --- | --- |
| NC(=O)c1ccc([C@H](Oc2ccc3c(c2-c2ccc(-c4ccccc4)cc2)OCCC3=O)c2ccncc2)cc1 (single isomer, unassigned) [Example 79b, (*S)-4-(((8-([1,1′-biphenyl]-4-yl)-4-oxochroman-7-yl)oxy)(pyridin-4-yl)methyl)benzamide] | 49 µM | > 15 µM | 0.97 µM | – |
| NC(=O)c1cccc([C@@H](Oc2ccc3c(c2)OCCC3=O)c2ccncc2)c1 (single isomer, unassigned) [Example 9a, (*R)-3-(((4-oxochroman-7-yl)oxy)(pyridin-4-yl)methyl)benzamide] | 0.92 µM | 4.7 µM | 6.3 µM | – |
| NC(=O)c1ccc([C@H](Oc2ccc3c(c2F)OCCC3=O)c2ccncc2)cc1 (single isomer, unassigned) [Example 50b, (*S)-4-(((8-Fluoro-4-oxochroman-7-yl)oxy)(pyridin-4-yl)methyl)benzamide] | 1.9 µM | > 15 µM | 2.5 µM | – |
| Cc1cc2c(cc1O[C@H](c1ccncc1)c1ccc(C(N)=O)cc1)OCCC2=O (single isomer, unassigned) [Example 49b, (*S)-4-(((6-Methyl-4-oxochroman-7-yl)oxy)(pyridin-4-yl)methyl)benzamide] | 1 µM | 15 µM | 3 µM | – |
| CCCc1c(O[C@@H](c2ccncc2)c2ccc(C(N)=O)cc2)ccc2c1OCCC2=O (single isomer, unassigned) [Example 80a, (*R)-4-(((4-Oxo-8-propylchroman-7-yl)oxy)(pyridin-4-yl)methyl)benzamide] | 0.66 µM | 5.9 µM | 0.032 µM | – |
| NC(=O)c1ccc([C@@H](Oc2ccc3c(c2)OCCC3=O)c2ccncc2C(F)(F)F)cc1 (single isomer, unassigned) [Example 19a, (*R)-4-(((4-oxochroman-7-yl)oxy)(3-(trifluoromethyl)pyridin-4-yl)methyl)benzamide] | 0.82 µM | 1.8 µM | 3.6 µM | – |
| NC(=O)c1ccc([C@H](Oc2ccc3c(c2)OCCC3=O)c2ccncc2C(F)(F)F)cc1 (single isomer, unassigned) [Example 19b, (*S)-4-(((4-oxochroman-7-yl)oxy)(3-(trifluoromethyl)pyridin-4-yl)methyl)benzamide] | 1.2 µM | 4.7 µM | 7.6 µM | – |
| COc1cc(O[C@H](c2ccncc2)c2ccc(C(N)=O)cc2)cc2c1C(=O)CCO2 (single isomer, unassigned) [Example 77b, (*S)-4-(((5-methoxy-4-oxochroman-7-yl)oxy)(pyridin-4-yl)methyl)benzamide] | 1.5 µM | 9.9 µM | 5.5 µM | – |
| NC(=O)c1ccc([C@H](Oc2ccc3c(c2)OCCC3=O)c2ccncc2-c2ccccc2)cc1 (single isomer, unassigned) [Example 25b, (*S)-4-(((4-oxochroman-7-yl)oxy)(3-phenylpyridin-4-yl)methyl)benzamide] | 0.49 µM | 3.2 µM | 4.5 µM | – |
| O=C1CCOc2cc(OC(c3ccncc3)c3cccc(F)c3)ccc21 (racemic) [Example 2, (R,S)-7-((3-Fluorophenyl)(pyridin-4-yl)methoxy)chroman-4-one] | 1 µM | > 15 µM | 2.8 µM | – |
| O=C1CCOc2cc(O[C@H](c3ccncc3)c3ccc(F)cc3)ccc21 (single isomer, unassigned) [Example 3b, (*S)-7-((4-Fluorophenyl)(pyridin-4-yl)methoxy)chroman-4-one] | 1.3 µM | > 15 µM | 2.1 µM | – |
| NC(=O)c1ccc([C@H](Oc2ccc3c(c2)O[C@H](c2ccccc2)CC3=O)c2ccncc2)cc1 (single isomer, unassigned) [Example 42b, 4-((*S)—(((*S)-4-oxo-2-phenylchroman-7-yl)oxy)(pyridin-4-yl)methyl)benzamide] | 7.5 µM | 9.9 µM | 12 µM | – |
| COc1cc([C@H](Oc2ccc3c(c2)OCCC3=O)c2ccc(C(N)=O)cc2)ccn1 (single isomer, unassigned) [Example 24a, (*R)-4-((2-methoxypyridin-4-yl)((4-oxochroman-7-yl)oxy)methyl)benzamide] | 1.4 µM | > 15 µM | 5.1 µM | – |
| COc1ccc(COc2ccc([C@@H](Oc3ccc4c(c3)OCCC4=O)c3ccncc3)cc2)cc1 (single isomer, unassigned) [Example 17a, (*R)-7-((4-((4-Methoxybenzyl)oxy)phenyl)(pyridin-4-yl)methoxy)chroman-4-one] | 5.8 µM | 15 µM | 4.3 µM | – |
| Cc1c(O[C@@H](c2ccncc2)c2ccc(C(N)=O)cc2OC(C)C)ccc2c1OCCC2=O (single isomer, unassigned) [Example 84b, (*S)-3-isopropoxy-4-(((8-methyl-4-oxochroman-7-yl)oxy)(pyridin-4-yl)methyl)benzamide] | < 1 µM | 1.7 µM | 6.5 µM | – |
| Cc1c(O[C@H](c2ccc(C(N)=O)cc2)c2cccc(F)c2)ccc2c1OCCC2=O (single isomer, unassigned) [Example 67a, (*R)-4-((3-Fluorophenyl)((8-methyl-4-oxochroman-7-yl)oxy)methyl)benzamide] | 3.1 µM | 15 µM | 2.7 µM | – |
| Cc1c(O[C@@H](c2ccc(Cl)cc2)c2ccc(C(N)=O)cn2)ccc2c1OCCC2=O (single isomer, unassigned) [Example 63b, (*S)-6-((4-chlorophenyl)((8-methyl-4-oxochroman-7-yl)oxy)methyl)nicotinamide] | 1.5 µM | 4.7 µM | 1.3 µM | – |
| Cc1c(O[C@@H](c2ccncc2)c2ccc(C(N)=O)cc2)ccc2c1OCCC2=O (single isomer, unassigned) [Example 48a, (*R)-4-(((8-methyl-4-oxochroman-7-yl)oxy)(pyridin-4-yl)methyl)benzamide] | 0.68 µM | 9.9 µM | – | 0.14 µM |
| O=C1CCOc2cc(OC(c3ccccc3)c3ccncc3)ccc21 (racemic) [Example 114, (R,S)-7-(Phenyl(pyridin-4-yl)methoxy)chroman-4-one] | 3.4 µM | > 10 µM | 11 µM | – |
| Cc1c(O[C@H]2CCc3cc(C(N)=O)ccc32)ccc2c1OCCC2=O (single isomer, unassigned) [Example 121b, (*S)-1-((8-methyl-4-oxochroman-7-yl)oxy)-2,3-dihydro-1H-indene-5-carboxamide] | 0.83 µM | > 15 µM | 14 µM | – |
| Cc1c(O[C@@H](c2ccc(F)cc2)c2ccc(C(N)=O)cc2)ccc2c1OCCC2=O (single isomer, unassigned) [Example 66a, (*R)-4-((4-Fluorophenyl)((8-methyl-4-oxochroman-7-yl)oxy)methyl)benzamide] | 2.7 µM | 4.7 µM | 7.8 µM | – |
| NC(=O)c1ccc([C@@H](Oc2ccc3c(c2)OCCC3=O)c2ccncc2)cc1 (single isomer, unassigned) [Example 11a, (*R)-4-(((4-oxochroman-7-yl)oxy)(pyridin-4-yl)methyl)benzamide] | 0.72 µM | > 15 µM | 0.46 µM | – |
